In patent US4241069A, “3-Methylene flavanones and 3-methylene chromanones” (Miles Laboratories, Inc., priority 1979, dated 1980):
Values after ≈ are worked out from the molar mass of the structure shown.

Legend:
A. fumigatus NRRL 165 = experiment: MIC, agar incorporation method; format: cell-based; settings: Aspergillus fumigatus, NRRL165, 32° C., 48-72 hours, read-out: Minimal Inhibitory Concentration
Method: (§1) The compounds of the present invention were tested for their ability to inhibit the growth of microorganisms by in vitro tests. Generally the in vitro tests involve growing representative microorganisms under conditions favorable to such growth and measuring the effectiveness of one or more compounds in inhibiting or destroying the growth of the microorganisms. The microorganisms used include representative bacteria, fungi and yeasts.
(§2) A representative selection of the test microorganisms were cultured in a nutrient broth, such as, for example, Eugon, commercially available from Difco Laboratories, Detroit, Michigan. Bacteria and Candida species were cultured for 24 hours at 32°-37° C. and fungi were cultured for approximately one week at 32° C. Inocula were prepared by suspending the growth or spores from a slant culture in sufficient sterile normal (0.9 percent) saline or Eugon broth, to yield cell or spore concentrations of 1,000,000 cells per milliliter. Anaerobic bacteria were cultured for 48-72 hours at 32°-37° C. in a thioglycollate containing medium, for example, Fluid Thioglycollate medium or NIH thioglycollate broth, commercially available from Difco Laboratories.
(§3) The compounds of the present invention were tested for activity against bacteria, yeasts and fungi by the agar incorporation method described below. MA 1347, 3-(dimethylaminomethyl)flavanone (disclosed in U.S. Pat. No. 3,753,985) was used as a comparative standard along with controls for each solvent system used.
(§4) A series of agar plates containing two-fold dilutions of each compound to be tested, ranging in concentration from 100 to 3.1 mcg/ml of agar medium was prepared. Aliquots of each concentration (100, 50, 25, 12.5, 6.2, and 3.1) prepared in N,N-dimethylformamide or 50 percent aqueous DMF were added to liquid Eugon agar at 48° C. (one part test solution to 100 parts agar). In some cases, tests with further dilutions to 0.125 mcg/ml were conducted. The agar medium, containing the 3-methylene flavanone or chromanone compound to be tested, was then dispensed into petri dishes and allowed to solidify. The solidified plates were kept overnight at room temperatures to dry the surface of the agar.
(§5) The agar plates were then inoculated with a drop of the standardized cell or spore suspension. Inoculated plates were incubated at 32° C. The inhibition end-point or minimum inhibitory concentration (MIC) shown in Table D represent the lowest concentration of test compound which inhibited the growth of the microorganism. Visual determination of growth inhibition was used. Bacteria and yeast end-points were determined after 24 hours incubation; molds, dermatophytes and anaerobes after 48-72 hours incubation. MIC values shown as ranges represent the extremes found in repeat assays. Virtually all such values were written plus or minus one dilution, the accepted variation of a two-fold dilution assay.

[1] = tested on: Candida albicans ATCC 10231; experiment: MIC, agar incorporation method; format: cell-based; settings: ATCC10231, C. albicans ATCC 10231, 32° C., 24 hours, read-out: Minimal Inhibitory Concentration
Method: as §1, §2, §3, §4, §5

[2] = tested on: Proteus vulgaris NRRL B123; experiment: MIC, agar incorporation method; format: cell-based; settings: NRRLB123, 32° C., 24 hours, read-out: Minimal Inhibitory Concentration
Method: as §1, §2, §3, §4, §5

C. tropicalis NRRL Y1410 = experiment: MIC, agar incorporation method; format: cell-based; settings: Candida tropicalis, NRRLY1410; 32° C., 24 hours; read-out: Minimal Inhibitory Concentration
Method: as §1, §2, §3, §4, §5

C. guillermondii VM 42 = experiment: MIC, agar incorporation method; format: cell-based; settings: 32° C., 24 hours; read-out: Minimal Inhibitory Concentration
Method: as §1, §2, §3, §4, §5

[3] = tested on: Trichophyton mentagrophytes ATCC 4807; experiment: MIC, agar incorporation method; format: cell-based; settings: ATCC4807, 32° C., 48-72 hours, read-out: Minimal Inhibitory Concentration
Method: as §1, §2, §3, §4, §5

[4] = tested on: Streptococcus faecalis ATCC 10541; experiment: MIC, agar incorporation method; format: cell-based; settings: Enterococcus faecalis, ATCC10541; 32° C., 24 hours; read-out: Minimal Inhibitory Concentration
Method: as §1, §2, §3, §4, §5

T. mentagrophytes TM-2 = experiment: MIC, agar incorporation method; format: cell-based; settings: Trichophyton mentagrophytes, TM2, 32° C., 48-72 hours, read-out: Minimal Inhibitory Concentration
Method: as §1, §2, §3, §4, §5

T. rubrum ATCC 10218 = experiment: MIC, agar incorporation method; format: cell-based; settings: Trichophyton rubrum, ATCC10218; 32° C., 48-72 hours; read-out: Minimal Inhibitory Concentration
Method: as §1, §2, §3, §4, §5

[5] = tested on: Microsporum gypseum ATCC 14683; experiment: MIC, agar incorporation method; format: cell-based; settings: Nannizzia gypsea, ATCC14683, 32° C., 48-72 hours; read-out: Minimal Inhibitory Concentration
Method: as §1, §2, §3, §4, §5

A. fumigatus NRRL 163 = experiment: MIC, agar incorporation method; format: cell-based; settings: Aspergillus fumigatus, NRRL163, NRRL 163; 32° C., 48-72 hours; read-out: Minimal Inhibitory Concentration
Method: as §1, §2, §3, §4, §5

[6] = tested on: Sarcina subflava ATCC 7468; experiment: MIC, agar incorporation method; format: cell-based; settings: ATCC7468, 32° C., 24 hours, read-out: Minimal Inhibitory Concentration
Method: as §1, §2, §3, §4, §5

C. albicans NRRL Y-477 = experiment: MIC, agar incorporation method; format: cell-based; settings: Candida albicans, NRRLY477, 32° C., 24 hours, read-out: Minimal Inhibitory Concentration
Method: as §1, §2, §3, §4, §5

C. krusei VM 29B = experiment: MIC, agar incorporation method; format: cell-based; settings: Pichia kudriavzevii, VM29B; 32° C., 24 hours; read-out: Minimal Inhibitory Concentration
Method: as §1, §2, §3, §4, §5

[7] = tested on: Staphylococcus aureus ATCC 6538; experiment: MIC, agar incorporation method; format: cell-based; settings: Staphylococcus aureus, ATCC6538; S. aureus ATCC 6538; 32° C., 24 hours; read-out: Minimal Inhibitory Concentration
Method: as §1, §2, §3, §4, §5

[8] = tested on: Aspergillus niger ATCC 16404; experiment: MIC, agar incorporation method; format: cell-based; settings: ATCC16404, 32° C., 48-72 hours, read-out: Minimal Inhibitory Concentration
Method: as §1, §2, §3, §4, §5

[9] = tested on: Escherichia coli ATCC 8739; experiment: MIC, agar incorporation method; format: cell-based; settings: ATCC8739, 32° C., 24 hours, read-out: Minimal Inhibitory Concentration
Method: as §1, §2, §3, §4, §5

T. mentagrophytes CDC = experiment: MIC, agar incorporation method; format: cell-based; settings: Trichophyton mentagrophytes, 32° C., 48-72 hours, read-out: Minimal Inhibitory Concentration
Method: as §1, §2, §3, §4, §5

[10] = tested on: Pseudomonas aeruginosa ATCC 14502; experiment: MIC, agar incorporation method; format: cell-based; settings: ATCC14502, 32° C., 24 hours, read-out: Minimal Inhibitory Concentration
Method: as §1, §2, §3, §4, §5

[11] = tested on: Propionobacterium acnes ATCC 6919; experiment: MIC, agar incorporation method, anaerobic; format: cell-based; settings: 48 hours at 35° C., GasPak Anaerobic Jar, read-out: Minimal Inhibitory Concentration
Method: as §1, §2, §3, §4, §5
(§6) *Anaerobic: 48 hours incubation at 35° C. GasPak Anaerobic Jar

[12] = tested on: Clostridium acetobutylicum ATCC 824; experiment: MIC, agar incorporation method, anaerobic; format: cell-based; settings: ATCC824, 48 h, 48 hours at 35° C., GasPak Anaerobic Jar, read-out: Minimal Inhibitory Concentration
Method: as §1, §2, §3, §4, §5, §6

S. aureus NRRL B2747 [13] = experiment: MIC, agar incorporation method; format: cell-based, Staphylococcus aureus; settings: Staphylococcus aureus, NRRLB2747, 32° C., 24 hours, read-out: Minimal Inhibitory Concentration
Method: as §1, §2, §3, §4, §5

T. tonsurans ATCC 10217 = experiment: MIC, agar incorporation method; format: cell-based; settings: Trichophyton tonsurans, ATCC10217; 32° C., 48-72 hours; read-out: Minimal Inhibitory Concentration
Method: as §1, §2, §3, §4, §5

[14] = tested on: Bacteriodides fragilis ATCC 8482; experiment: MIC, agar incorporation method, anaerobic; format: cell-based; settings: 48 hours at 35° C., GasPak Anaerobic Jar, read-out: Minimal Inhibitory Concentration
Method: as §1, §2, §3, §4, §5, §6

S. aureus NRRL B2747 [15] = experiment: MIC, agar incorporation method, anaerobic; format: cell-based; settings: Staphylococcus aureus, NRRLB2747, 48 hours at 35° C., GasPak Anaerobic Jar, read-out: Minimal Inhibitory Concentration
Method: as §1, §2, §3, §4, §5, §6

[16] = tested on: Clostridium sporogenes ATCC 11437; experiment: MIC, agar incorporation method, anaerobic; format: cell-based; settings: ATCC11437, 48 hours at 35° C., GasPak Anaerobic Jar, read-out: Minimal Inhibitory Concentration
Method: as §1, §2, §3, §4, §5, §6

Row | SMILES | MIC (A. fumigatus NRRL 165) [µg/mL] | MIC [1] [µg/mL] | MIC (C. tropicalis NRRL Y1410) [µg/mL] | MIC (C. guillermondii VM 42) [µg/mL] | MIC [3] [µg/mL] | MIC [4] [µg/mL] | MIC (T. mentagrophytes TM-2) [µg/mL] | MIC (T. rubrum ATCC 10218) [µg/mL] | MIC [5] [µg/mL] | MIC (A. fumigatus NRRL 163) [µg/mL] | MIC [6] [µg/mL] | MIC (C. albicans NRRL Y-477) [µg/mL] | MIC (C. krusei VM 29B) [µg/mL] | MIC [7] [µg/mL] | MIC [8] [µg/mL] | MIC [9] [µg/mL] | MIC (T. mentagrophytes CDC) [µg/mL] | MIC [10] [µg/mL] | MIC [11] [µg/mL] | MIC (S. aureus NRRL B2747 [13]) [µg/mL] | also measured
1 | C=C1C(=O)c2ccccc2OC1c1ccc(Cl)cc1 (stereo not drawn) [Ex. 3, 4'-chloro-3-methylene flavanone] | 50 (≈ 185 µM) | 12.5 (≈ 46.2 µM) | 25 (≈ 92.3 µM) | 25 (≈ 92.3 µM) | 6.2 (≈ 22.9 µM) | 25 (≈ 92.3 µM) | 6.2 (≈ 22.9 µM) | ≤ 3.1 | 6.2 (≈ 22.9 µM) | 6.2 (≈ 22.9 µM) | 6.2 (≈ 22.9 µM) | 12.5 (≈ 46.2 µM) | 12.5 (≈ 46.2 µM) | ≤ 3.1 | 25 (≈ 92.3 µM) | > 100 | 6.2 (≈ 22.9 µM) | > 100 | ≤ 100 | 3.1 (≈ 11.5 µM) | MIC [2]: > 100 µg/mL; MIC [12]: ≤ 100 µg/mL
2 | C=C1C(=O)c2ccccc2OC1c1ccccc1 (stereo not drawn) [Ex. 1, 3-methylene flavanone] |  | 50 (≈ 212 µM) | 100 (≈ 423 µM) | 100 (≈ 423 µM) | 12.5 (≈ 52.9 µM) | 100 (≈ 423 µM) | 12.5 (≈ 52.9 µM) |  | 6.2 to 12.5 (≈ 26.2 to 52.9 µM) | 6.2 (≈ 26.2 µM) |  | 50 (≈ 212 µM) | 50 (≈ 212 µM) | 6.2 (≈ 26.2 µM) |  | > 100 | 12.5 (≈ 52.9 µM) | > 100 | 12.5 (≈ 52.9 µM) | 12.5 (≈ 52.9 µM) | MIC (T. tonsurans ATCC 10217): 6.2 µg/mL (≈ 26.2 µM); MIC [14]: 1.56 µg/mL (≈ 6.6 µM); MIC (S. aureus NRRL B2747 [15]): 25 µg/mL (≈ 106 µM); MIC [16]: 12.5 µg/mL (≈ 52.9 µM)
3 | C=C1C(=O)c2ccccc2OC1c1ccc([N+](=O)[O-])cc1 (stereo not drawn) [Ex. 10, 4'-nitro-3-methylene flavanone] | 100 (≈ 356 µM) | 25 (≈ 88.9 µM) | 50 (≈ 178 µM) | 50 (≈ 178 µM) | 6.2 (≈ 22 µM) | 50 (≈ 178 µM) | 6.2 (≈ 22 µM) | ≤ 3.1 | 6.2 (≈ 22 µM) | 12.5 (≈ 44.4 µM) | 12.5 (≈ 44.4 µM) | 25 (≈ 88.9 µM) | 25 (≈ 88.9 µM) | ≤ 3.1 | 50 (≈ 178 µM) | > 100 | 6.2 (≈ 22 µM) | > 100 | ≤ 100 | 6.2 (≈ 22 µM) | MIC [2]: > 100 µg/mL; MIC [12]: ≤ 100 µg/mL
4 | C=C1C(=O)c2ccccc2OC1c1ccc(Cl)cc1Cl (stereo not drawn) [Ex. 4, 2',4'-dichloro-3-methylene flavanone] |  | 25 (≈ 81.9 µM) | 50 (≈ 164 µM) | 50 (≈ 164 µM) | 12.5 (≈ 41 µM) | 25 to 50 (≈ 81.9 to 164 µM) | 12.5 to 25 (≈ 41 to 81.9 µM) | 12.5 (≈ 41 µM) | 6.2 to 12.5 (≈ 20.3 to 41 µM) | 50 (≈ 164 µM) | 3.1 (≈ 10.2 µM) | 25 (≈ 81.9 µM) | 25 to 50 (≈ 81.9 to 164 µM) | 1.56 (≈ 5.11 µM) | 100 (≈ 328 µM) | > 100 | 12.5 to 25 (≈ 41 to 81.9 µM) | > 100 | 3.1 (≈ 10.2 µM) | 1.56 (≈ 5.11 µM) | MIC (T. tonsurans ATCC 10217): 6.2 µg/mL (≈ 20.3 µM); MIC [14]: 3.1 µg/mL (≈ 10.2 µM); MIC (S. aureus NRRL B2747 [15]): 6.2 µg/mL (≈ 20.3 µM); MIC [16]: ≤ 0.78 µg/mL
